Laboratory results taken from ChEMBL document CHEMBL3045931, “QSAR studies of antituberculosis drug using three-dimensional structure descriptors” (Med Chem Res, 2013).

Test system: Mycobacterium tuberculosis
Assay: Antitubercular activity against Mycobacterium tuberculosis assessed as growth inhibition […]
Format: functional, organism-based
Settings: read-out: log(1/IC50) (converted)

## Cc1ccc(C(=O)N2CCN(c3ccccc3)CC2)cc1
  IC50: 16.6 µM

## Cc1cccc(C(=O)N2CCN(c3cccc(Cl)c3)CC2)c1
  IC50: 9.33 µM

## O=C(c1ccc(F)cc1)N1CCN(c2cccc(Cl)c2)CC1
  IC50: 9.77 µM

## Cc1ccc(C(=O)N2CCN(c3cccc(C(F)(F)F)c3)CC2)cc1C
  IC50: 1.86 µM

## CC(C)(C)c1ccc(C(=O)N2CCN(c3cccc(Cl)c3)CC2)cc1
  IC50: 100 µM

## CC(C)(C)c1ccc(C(=O)N2CCN(c3cccc(C(F)(F)F)c3)CC2)cc1
  IC50: 100 µM

## O=C(c1cccc(Cl)c1)N1CCN(c2cccc(Cl)c2)CC1
  IC50: 6.76 µM

## O=C(c1ccc(Cl)c(Cl)c1)N1CCN(c2ccccc2)CC1
  IC50: 17.8 µM

## O=C(c1ccccc1)N1CCN(Cc2ccccc2)CC1
  IC50: 31.6 µM

## O=C(c1cccc(Cl)c1)N1CCC(Cc2ccccc2)CC1
  IC50: 7.76 µM

## Cc1ccc(C(=O)N2CCC(Cc3ccccc3)CC2)cc1
  IC50: 5.13 µM

## O=C(c1ccccc1)N1CCN(c2ccccc2)CC1
  IC50: 38.9 µM

## O=C(c1ccc2[nH]ccc2c1)N1CCN(C(c2ccc(F)cc2)c2ccc(F)cc2)CC1
  IC50: 1.05 µM

## Cc1ccc(C(=O)N2CCN(C(c3ccc(F)cc3)c3ccc(F)cc3)CC2)cc1
  IC50: 1.91 µM

## O=C(c1ccccc1)N1CCN(C(c2ccc(F)cc2)c2ccc(F)cc2)CC1
  IC50: 2.04 µM

## CC(C)c1ccc(C(=O)N2CCN(c3cccc(Cl)c3)CC2)cc1
  IC50: 100 µM

## O=C(c1ccccc1F)N1CCN(c2cccc(Cl)c2)CC1
  IC50: 13.8 µM

## Cc1ccc(C(=O)N2CCN(c3cccc(C(F)(F)F)c3)CC2)cc1
  IC50: 6.31 µM

## Cc1cccc(C(=O)N2CCN(c3ccc([N+](=O)[O-])cc3)CC2)c1
  IC50: 15.5 µM

## Cc1ccc(N2CCN(C(=O)c3ccc(C(C)(C)C)cc3)CC2)cc1Cl
  IC50: 100 µM

## O=C(c1ccc(Cl)c(Cl)c1)N1CCN(c2cccc(Cl)c2)CC1
  IC50: 6.03 µM

## Cc1ccc(C(=O)N2CCN(c3cccc(Cl)c3)CC2)cc1
  IC50: 3.09 µM

## O=C(c1ccccc1F)N1CCC(Cc2ccccc2)CC1
  IC50: 14.1 µM
